Data on 3 compounds can be found in US20200179327A1, “USE OF PHENOLIC COMPOUNDS FROM OLEA EUROPAEA” (McCord Research, Inc., priority 2017, published 2020).

Structures are written as SMILES.

In data set [1] the target is T1, COX-1 (Ovis aries, UniProt P05979).
T1 construct: purchased BioVision
T1 sequence (P05979 25-600): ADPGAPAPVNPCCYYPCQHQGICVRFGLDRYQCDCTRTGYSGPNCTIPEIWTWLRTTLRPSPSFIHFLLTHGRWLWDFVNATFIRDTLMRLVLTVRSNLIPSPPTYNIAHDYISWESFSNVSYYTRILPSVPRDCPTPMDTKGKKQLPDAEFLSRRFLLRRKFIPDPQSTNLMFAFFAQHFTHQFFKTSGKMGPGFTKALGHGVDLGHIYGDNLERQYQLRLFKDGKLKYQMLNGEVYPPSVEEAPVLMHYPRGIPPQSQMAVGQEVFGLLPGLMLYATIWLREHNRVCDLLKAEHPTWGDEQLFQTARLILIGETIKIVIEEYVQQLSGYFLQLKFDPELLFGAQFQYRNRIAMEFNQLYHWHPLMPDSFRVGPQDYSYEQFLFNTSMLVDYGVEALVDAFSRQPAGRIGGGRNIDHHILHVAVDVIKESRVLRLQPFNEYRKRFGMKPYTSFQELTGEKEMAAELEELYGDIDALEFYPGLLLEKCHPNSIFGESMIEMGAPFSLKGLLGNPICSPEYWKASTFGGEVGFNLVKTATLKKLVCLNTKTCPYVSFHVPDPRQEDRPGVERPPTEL
Put plainly: COX-1/2 inhibitor screening kit (BioVision), COX-1. The format is biochemical. To be noted: 10-dose, 2-fold dilution from 1000 μM; read-out: COX-1 inhibition IC50. How it is done: (§1) Inhibition of individual COX-1 and COX-2 enzymes by MMBHTE and oleocanthal was measured using the COX-1/2 inhibitor screening kit (BioVision, Milpatas, Calif., USA), according to the manufacturer's instructions. […] The production of prostaglandin G2, the intermediate product generated by the COX enzyme in the presence of arachidonic acid is measured by coupling with HRP and COX substrate and fluorescence was measured using the CLARIOstar microplate reader at Ex/Em=535/587 nm. Data is represented at the percentage of COX enzymatic activity inhibition relative to the log of the compound and a curve fit for the control compound. Corresponding IC50 values were calculated.
(§2) FIG. 6A and FIG. 6B show the inhibition activities of MMBHTE and Oleocanthal on COX-1 and COX-2, respectively. The data shown in FIG. 6A and FIG. 6B indicates all the test samples fell within the detectable range. The data shown in FIG. 6A and FIG. 6B is represented as the percentage of COX enzymatic activity inhibition relative to the log of the concentrations and best-fit curves for MMBHTE and Oleocanthal. Corresponding IC50 values were calculated. […] Therefore, MMBHTE is a […] COX-1 and COX-2 inhibitor.

For data set [2], the target named is T2, monoamine oxidase A (MAO-A) (Homo sapiens, UniProt P21397).
T2 construct: purchased Sigma-Aldrich
T2 sequence (P21397 1-527): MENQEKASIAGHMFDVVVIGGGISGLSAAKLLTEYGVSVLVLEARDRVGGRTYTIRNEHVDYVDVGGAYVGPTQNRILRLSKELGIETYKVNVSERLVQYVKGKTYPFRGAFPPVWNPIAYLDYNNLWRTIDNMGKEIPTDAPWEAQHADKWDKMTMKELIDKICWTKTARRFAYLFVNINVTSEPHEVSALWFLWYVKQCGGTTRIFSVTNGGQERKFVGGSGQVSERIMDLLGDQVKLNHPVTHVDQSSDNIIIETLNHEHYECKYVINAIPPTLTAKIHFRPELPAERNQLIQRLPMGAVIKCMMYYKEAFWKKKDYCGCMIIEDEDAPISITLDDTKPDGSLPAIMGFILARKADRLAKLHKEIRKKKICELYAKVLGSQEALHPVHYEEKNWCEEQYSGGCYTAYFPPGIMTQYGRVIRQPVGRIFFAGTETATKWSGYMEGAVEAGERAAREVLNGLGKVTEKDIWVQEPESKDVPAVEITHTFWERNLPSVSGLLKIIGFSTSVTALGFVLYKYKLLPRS
Put plainly: Monoamine Oxidase A (MAO-A) Inhibitor Screening Kit. The format is biochemical. To be noted: 10-dose, 2-fold dilution from 100 μM; substrate tyramine; read-out: MAO-A inhibition IC50. How it is done:
The production of H2O2 generated by the oxidative deamination of the MAO substrate tyramine was measured fluorometrically using the CLARIOstar microplate reader at Ex/Em=535/587 nm. Data is represented as the percentage of MAO enzymatic activity inhibition relative to the log of the compound and a curve fit for the control compound. Corresponding IC50 values were calculated.

Data set [3] deals with T3, COX-2 (Homo sapiens, UniProt P35354).
T3 construct: purchased BioVision
T3 sequence (P35354 18-604): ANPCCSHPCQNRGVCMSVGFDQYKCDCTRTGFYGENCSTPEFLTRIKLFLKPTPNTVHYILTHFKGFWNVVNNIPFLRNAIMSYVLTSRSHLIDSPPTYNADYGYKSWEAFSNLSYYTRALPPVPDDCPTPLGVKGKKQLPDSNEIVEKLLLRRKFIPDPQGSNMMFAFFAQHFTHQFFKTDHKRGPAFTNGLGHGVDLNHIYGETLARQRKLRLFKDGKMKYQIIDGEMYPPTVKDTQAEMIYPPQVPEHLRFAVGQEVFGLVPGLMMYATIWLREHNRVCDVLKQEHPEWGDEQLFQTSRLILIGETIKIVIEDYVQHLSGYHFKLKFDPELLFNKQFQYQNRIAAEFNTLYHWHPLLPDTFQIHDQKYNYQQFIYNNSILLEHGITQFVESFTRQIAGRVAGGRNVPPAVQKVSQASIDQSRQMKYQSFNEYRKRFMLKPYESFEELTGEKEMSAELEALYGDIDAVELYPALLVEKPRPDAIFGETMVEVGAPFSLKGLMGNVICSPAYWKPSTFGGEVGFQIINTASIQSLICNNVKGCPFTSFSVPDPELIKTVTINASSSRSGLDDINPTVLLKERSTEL
The data set is described as follows: COX-1/2 inhibitor screening kit (BioVision), COX-2. Format: biochemical. The conditions noted are these: 10-dose, 2-fold dilution from 1000 μM; read-out: COX-2 inhibition IC50. How it is done:
as §1, §2

For data set [4], the system named is human aortic endothelial cells from patient with Type II diabetes (DII-HAEC). The data set is described as follows: Cell viability/proliferation, Cell-Titer Blue, DII-HAEC. The format is cell-based. To be noted: 0-800 μM, 24, 48 or 72 hours. How it is done:
(§3) Human peripheral blood mononuclear cells (PBMCs) were fractionated using the Ficoll Plaque fractionation method from whole blood obtained from the Australian Red Cross Blood Bank (ARCB) under ethic approval (#304/12). Cells were harvested fresh on the day of the experiments and maintained in complete-RPMI-1640 medium supplemented with 10% FBS, 2 mM L-glutamine and 20 μg/mL gentamicin at 37° C., 5% (v/v) CO2. Human aortic endothelial cells (HAECs, ATCC) and the equivalent cells taken for patients with Type II diabetes (DII-HAECs, ATCC) were cultured in endothelial cell growth medium (ECM) supplemented with 100 U/ml penicillin, 100 μg/ml streptomycin, 0.25 μg/ml fungizone, 2 mM L-glutamine, 5 U/ml heparin, 30-50 μg/ml endothelial cell growth supplement (Technoclone, Vienna, Austria). All cells were passaged by typsination and seeded into 6 well culture dishes at cell densities of 1×10^6 cells per well; at 37° C., 5% (v/v) CO2. […] Cell viability was measured using the Cell-Titer Blue® Assay kit (Promega, Madison, Wis., USA) according to the manufacturer's instructions. Cell-Titer Blue reagent was added to each well and incubated for 4 hours at 37° C., 5% CO2, before reading fluorescence intensity (550 nm excitation; 615 nm emission) using the CLARIOstar (BMG LABTECH, Offenburg, Germany) microplate reader. […]

The target of data set [5] is T4, lysine-specific demethylase 1 (LSD1) (Homo sapiens, UniProt O60341).
T4 construct: purchased EpiGentek
Put plainly: EpiQuik Histone Demethylase LSD1 inhibitor screening assay. Format: biochemical. The conditions noted are these: 10-dose, 2-fold dilution from 200 μM; read-out: LSD1 enzyme activity inhibition IC50.

Data set [6] relates to primary skin fibroblasts (BJ). Put plainly: Cell viability/proliferation, Cell-Titer Blue, BJ. Format: cell-based, human. The conditions noted are these: 0-800 μM, 24, 48 or 72 hours.
Data set [7] concerns primary human aortic endothelial cells from a healthy patient (h-HAEC). The data set is described as follows: Cell viability/proliferation, Cell-Titer Blue, h-HAEC. Format: cell-based. The conditions noted are these: 0-800 μM, 24, 48 or 72 hours. How it is done: as §3
Data set [8] deals with peripheral blood mononuclear cells (PBMC). Put plainly: Cell viability/proliferation, Cell-Titer Blue, PBMC. Format: cell-based, human. The conditions noted are these: 0-800 μM, 24, 48 or 72 hours. How it is done: as §3
The target of data set [9] is COX-1 (Homo sapiens, UniProt P23219). The conditions noted are these: in vitro; cited from earlier work.
Sequence of COX-1 (Homo sapiens, UniProt P23219) (P23219 24-599): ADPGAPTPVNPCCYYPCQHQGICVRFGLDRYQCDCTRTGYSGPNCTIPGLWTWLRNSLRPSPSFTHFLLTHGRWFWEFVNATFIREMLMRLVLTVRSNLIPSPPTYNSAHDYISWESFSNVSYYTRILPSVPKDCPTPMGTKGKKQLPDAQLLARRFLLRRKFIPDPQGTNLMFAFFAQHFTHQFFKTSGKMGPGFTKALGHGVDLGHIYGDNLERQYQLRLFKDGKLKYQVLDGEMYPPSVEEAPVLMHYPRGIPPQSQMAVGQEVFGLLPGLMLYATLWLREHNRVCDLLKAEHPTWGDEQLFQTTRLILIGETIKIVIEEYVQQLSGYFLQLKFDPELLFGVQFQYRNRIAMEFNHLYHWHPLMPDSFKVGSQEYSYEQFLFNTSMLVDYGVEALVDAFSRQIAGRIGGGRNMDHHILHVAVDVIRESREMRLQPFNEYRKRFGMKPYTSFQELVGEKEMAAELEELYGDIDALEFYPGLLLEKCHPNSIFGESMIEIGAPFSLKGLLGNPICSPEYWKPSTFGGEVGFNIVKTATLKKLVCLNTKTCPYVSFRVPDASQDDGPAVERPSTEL
For data set [10], the target named is T3, COX-2. The conditions noted are these: in vitro; cited from earlier work.
In the next data set the test system is lipoxygenase. To be noted: in vitro; cited from earlier work.

By IC50 is commonly meant the concentration needed to halve the response being measured. Consider `COC(=O)[C@H](O)CC(=O)OCCc1ccc(O)c(O)c1` (stereo in doubt) [MMBHTE, methyl malate-β-hydroxytyrosol ester], for which the IC50 was found to be 1720 ± 90 nM on COX-1 [1], 443 ± 158 nM in data set [2], 81600 ± 7700 nM at COX-2 [3] and 11.9 nM in data set [5]. Besides, the “toxicity profile (cell viability)” value in [4], in data set [6], in data set [7] and in [8] was “very favorable toxicity profile” throughout.

As to `OCCc1ccc(O)c(O)c1` [HT, hydroxytyrosol, reference compound], the figures for the IC50 in data set [2] and in data set [5] were 39100 ± 31500 nM and 21.8 nM, respectively.

With `C/C=C(/C=O)[C@@H](CC=O)CC(=O)OCCc1ccc(O)cc1` [Oleocanthal], on COX-1 [9], the “inhibition of COX-1” value was “dose-dependent inhibitor”. Further, the IC50 was 430 ± 50 nM on COX-1 [1] and 352000 ± 7700 nM on COX-2 [3]. For the same compound, the “inhibition of COX-2” value at COX-2 [10] is “dose-dependent inhibitor”. In addition, the effect on lipoxygenase entry with lipoxygenase is “no effect”.
